Species: Rattus norvegicus
Assay: DrugMatrix - Regimen: Daily Repeat
Type: toxicity, organism-based, Sprague-Dawley
Parameters: regimen Daily Repeat, gender Male, age 6-8 weeks
Details: in vivo, po, route oral GAVAGE, vehicle 100 % WATER; for URIC ACID / ALANINE AMINOTRANSFERASE / ALBUMIN / ALKALINE PHOSPHATASE / ASPARTATE AMINOTRANSFERASE / BLOOD UREA NITROGEN / CARBON DIOXIDE / CHLORIDE / CHOLESTEROL / CREATININE / GLUCOSE / LACTATE DEHYDROGENASE / LIPASE / PHOSPHORUS / POTASSIUM / SODIUM / TOTAL BILIRUBIN / TOTAL PROTEIN / CREATINE PHOSPHOKINASE: tissue Plasma; for ABSOLUTE BASOPHIL / ABSOLUTE EOSINOPHIL / ABSOLUTE LYMPHOCYTE / ABSOLUTE MONOCYTE / ABSOLUTE SEGMENTED NEUTROPHIL / BASOPHIL / EOSINOPHIL / ERYTHROCYTE COUNT / HEMATOCRIT / HEMOGLOBIN / LEUKOCYTE COUNT / LYMPHOCYTE / MEAN CORPUSCULAR HEMOGLOBIN / MEAN CORPUSCULAR HEMOGLOBIN CONCENTRATION / MEAN CORPUSCULAR VOLUME / MONOCYTE / NEUTROPHIL / NUCLEATED RED BLOOD CELLS / PLATELET COUNT: tissue Blood
[1] = 25 mg/kg, 120 h, dose level Low, time 5 day
[2] = 120 mg/kg, 72 h, dose level High, time 3 day
[3] = 120 mg/kg, 120 h, dose level High, time 5 day

c1ccc([C@H]2CN3CCSC3=N2)cc1 [LEVAMISOLE]
URIC ACID (25 mg/kg, 72 h, dose level Low, time 3 day): 1.67 mg/dL | ABSOLUTE BASOPHIL [1]: 0 CELLS/uL | ABSOLUTE EOSINOPHIL [1]: 174 CELLS/uL | ABSOLUTE LYMPHOCYTE [1]: 12224.67 CELLS/uL | ABSOLUTE MONOCYTE [1]: 328 CELLS/uL | ABSOLUTE SEGMENTED NEUTROPHIL [1]: 1106.67 CELLS/uL | BASOPHIL [1]: 0% | EOSINOPHIL [1]: 1.33% | ERYTHROCYTE COUNT [1]: 5.32 x10E6/uL | HEMATOCRIT [1]: 33.6% | HEMOGLOBIN [1]: 13.4 G/DL | LEUKOCYTE COUNT [1]: 13.83 x10E3/uL | LYMPHOCYTE [1]: 88.33% | MEAN CORPUSCULAR HEMOGLOBIN [1]: 25.2 pg | MEAN CORPUSCULAR HEMOGLOBIN CONCENTRATION [1]: 39.9 G/DL | MEAN CORPUSCULAR VOLUME [1]: 63.2 fL | MONOCYTE [1]: 2.33% | NEUTROPHIL [1]: 8% | NUCLEATED RED BLOOD CELLS [1]: 0 /100WBC | PLATELET COUNT [1]: 1156 x10E3/uL | ALANINE AMINOTRANSFERASE [1]: 50 u/L | ALBUMIN [1]: 4.2 G/DL | ALKALINE PHOSPHATASE [1]: 418 u/L | ASPARTATE AMINOTRANSFERASE [1]: 86.33 u/L | BLOOD UREA NITROGEN [1]: 17.67 mg/dL | CARBON DIOXIDE [1]: 27.33 mmol/L | CHLORIDE [1]: 100.67 MEQ/L | CHOLESTEROL [1]: 69.67 mg/dL | CREATININE [1]: 0.19 mg/dL | GLUCOSE [1]: 136 mg/dL | LACTATE DEHYDROGENASE [1]: 423 u/L | LIPASE [1]: 11 u/L | PHOSPHORUS [1]: 11.83 mg/dL | POTASSIUM [1]: 6.36 MEQ/L | SODIUM [1]: 141.8 MEQ/L | TOTAL BILIRUBIN [1]: 0.23 mg/dL | TOTAL PROTEIN [1]: 5.77 G/DL | URIC ACID [1]: 1.4 mg/dL | ABSOLUTE BASOPHIL [2]: 0 CELLS/uL | ABSOLUTE EOSINOPHIL [2]: 0 CELLS/uL | ABSOLUTE LYMPHOCYTE [2]: 11350 CELLS/uL | ABSOLUTE MONOCYTE [2]: 85 CELLS/uL | ABSOLUTE SEGMENTED NEUTROPHIL [2]: 565 CELLS/uL | BASOPHIL [2]: 0% | EOSINOPHIL [2]: 0% | ERYTHROCYTE COUNT [2]: 7.38 x10E6/uL | HEMATOCRIT [2]: 45.33% | HEMOGLOBIN [2]: 17.77 G/DL | LEUKOCYTE COUNT [2]: 12 x10E3/uL | LYMPHOCYTE [2]: 94% | MEAN CORPUSCULAR HEMOGLOBIN [2]: 24.1 pg | MEAN CORPUSCULAR HEMOGLOBIN CONCENTRATION [2]: 39.17 G/DL | MEAN CORPUSCULAR VOLUME [2]: 61.5 fL | MONOCYTE [2]: 1% | NEUTROPHIL [2]: 5% | NUCLEATED RED BLOOD CELLS [2]: 0 /100WBC | PLATELET COUNT [2]: 1087.67 x10E3/uL | ALANINE AMINOTRANSFERASE [2]: 57.33 u/L | ALBUMIN [2]: 4.4 G/DL | ALKALINE PHOSPHATASE [2]: 373.67 u/L | ASPARTATE AMINOTRANSFERASE [2]: 80.33 u/L | BLOOD UREA NITROGEN [2]: 17.67 mg/dL | CARBON DIOXIDE [2]: 28.33 mmol/L | CHLORIDE [2]: 98 MEQ/L | CHOLESTEROL [2]: 87.33 mg/dL | CREATINE PHOSPHOKINASE [2]: 366 u/L | CREATININE [2]: 0.2 mg/dL | GLUCOSE [2]: 152 mg/dL | LACTATE DEHYDROGENASE [2]: 277.67 u/L | LIPASE [2]: 12 u/L | PHOSPHORUS [2]: 12.7 mg/dL | POTASSIUM [2]: 6.52 MEQ/L | SODIUM [2]: 140.77 MEQ/L | TOTAL BILIRUBIN [2]: 0.13 mg/dL | TOTAL PROTEIN [2]: 6 G/DL | URIC ACID [2]: 2.23 mg/dL | ABSOLUTE BASOPHIL [3]: 0 CELLS/uL | ABSOLUTE EOSINOPHIL [3]: 0 CELLS/uL | ABSOLUTE LYMPHOCYTE [3]: 13503 CELLS/uL | ABSOLUTE MONOCYTE [3]: 159 CELLS/uL | ABSOLUTE SEGMENTED NEUTROPHIL [3]: 804.67 CELLS/uL | BASOPHIL [3]: 0% | EOSINOPHIL [3]: 0% | ERYTHROCYTE COUNT [3]: 5.98 x10E6/uL | HEMATOCRIT [3]: 36.6% | HEMOGLOBIN [3]: 14.47 G/DL | LEUKOCYTE COUNT [3]: 14.47 x10E3/uL | LYMPHOCYTE [3]: 93.33% | MEAN CORPUSCULAR HEMOGLOBIN [3]: 24.23 pg | MEAN CORPUSCULAR HEMOGLOBIN CONCENTRATION [3]: 39.53 G/DL | MEAN CORPUSCULAR VOLUME [3]: 61.17 fL | MONOCYTE [3]: 1% | NEUTROPHIL [3]: 5.67% | NUCLEATED RED BLOOD CELLS [3]: 0 /100WBC | PLATELET COUNT [3]: 1244.33 x10E3/uL | ALANINE AMINOTRANSFERASE [3]: 67.33 u/L | ALBUMIN [3]: 4.1 G/DL | ALKALINE PHOSPHATASE [3]: 355.33 u/L | ASPARTATE AMINOTRANSFERASE [3]: 137.33 u/L | BLOOD UREA NITROGEN [3]: 19.33 mg/dL | CARBON DIOXIDE [3]: 20.33 mmol/L | CHLORIDE [3]: 101 MEQ/L | CHOLESTEROL [3]: 84.33 mg/dL | CREATINE PHOSPHOKINASE [3]: 932 u/L | CREATININE [3]: 0.23 mg/dL | GLUCOSE [3]: 177.33 mg/dL | LACTATE DEHYDROGENASE [3]: 504.67 u/L | LIPASE [3]: 12.67 u/L | PHOSPHORUS [3]: 13.73 mg/dL | POTASSIUM [3]: 6.59 MEQ/L | SODIUM [3]: 143.9 MEQ/L | TOTAL BILIRUBIN [3]: 0.27 mg/dL | TOTAL PROTEIN [3]: 5.67 G/DL | URIC ACID [3]: 3.13 mg/dL
